Laboratory results reported in ChEMBL document CHEMBL5241131, “2-Anilino-4-(1-methyl-1H-pyrazol-4-yl)pyrimidine-derived CDK2 inhibitors as anticancer agents: Design, synthesis & evaluation” (Bioorg Med Chem, 2023).
Activity calls are given as the source filed them. The calls are words filed in the database; no cut-off is given here.

Experiments:
[1] = biological target: Cyclin-dependent kinase 1/cyclin B (Homo sapiens, UniProt P06493); test: Inhibition of CDK1/Cyclin B (unknown origin) assessed as inhibition constant incubated for 30 to 60 mins presence of dithiothreitol by Cheng-Prusoff equation analysis; format: protein-complex assay
[2] = biological target: Cyclin-dependent kinase 2 (Homo sapiens) (UniProt P24941); test: Inhibition of CDK2 in human HCT-116 cells assessed as reduction in phosphorylation at Serine 807/811 residue incubated for 24 hrs by Western blot analysis; format: cell-based; details: dose 0.5-1 µM
ES-2 = test: Antiproliferative activity against human ES2 cells assessed as inhibition of cell growth incubated for 72 hrs by MTT assay; format: functional
NCI-H460 = test: Antiproliferative activity against human NCI-H460 cells assessed as inhibition of cell growth incubated for 72 hrs by MTT assay; format: functional
OV-90 = test: Antiproliferative activity against human OV-90 cells assessed as inhibition of cell growth incubated for 72 hrs by MTT assay; format: functional
[3] = biological target: Cyclin-dependent kinase 2/cyclin E (Homo sapiens, UniProt P24941); test: Inhibition of CDK2/cyclin E (unknown origin) assessed as inhibition constant incubated for 30 to 60 mins presence of dithiothreitol by Cheng-Prusoff equation analysis; format: protein-complex assay
CDK9/cyclin T1 = CDK9/cyclin T1 (Homo sapiens, UniProt P50750); test: Inhibition of CDK9/cyclin T1 (unknown origin) assessed as inhibition constant incubated for 30 to 60 mins presence of dithiothreitol by Cheng-Prusoff equation analysis; format: protein-complex assay
CDK9/cyclin T1, sequence (O60563 whole entry): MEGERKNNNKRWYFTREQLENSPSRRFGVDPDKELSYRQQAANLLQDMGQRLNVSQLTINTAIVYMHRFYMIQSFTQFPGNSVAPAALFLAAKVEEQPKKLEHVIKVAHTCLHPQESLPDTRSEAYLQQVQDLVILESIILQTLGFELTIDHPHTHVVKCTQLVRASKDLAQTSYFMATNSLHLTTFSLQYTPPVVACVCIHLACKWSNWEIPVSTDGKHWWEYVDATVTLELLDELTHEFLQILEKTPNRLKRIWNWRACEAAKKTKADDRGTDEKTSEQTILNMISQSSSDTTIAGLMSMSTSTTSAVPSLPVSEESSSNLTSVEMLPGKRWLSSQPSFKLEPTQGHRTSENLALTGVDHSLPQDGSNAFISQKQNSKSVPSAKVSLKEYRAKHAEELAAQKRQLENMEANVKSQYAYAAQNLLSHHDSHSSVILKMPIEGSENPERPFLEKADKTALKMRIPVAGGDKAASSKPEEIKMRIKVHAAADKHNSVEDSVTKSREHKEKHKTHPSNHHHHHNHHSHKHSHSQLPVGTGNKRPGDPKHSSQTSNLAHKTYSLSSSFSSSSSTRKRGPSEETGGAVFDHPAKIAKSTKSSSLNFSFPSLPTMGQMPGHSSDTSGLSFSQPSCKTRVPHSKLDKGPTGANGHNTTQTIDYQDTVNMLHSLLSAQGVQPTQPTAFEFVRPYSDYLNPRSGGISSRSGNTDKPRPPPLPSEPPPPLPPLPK
CDK9/cyclin T1, sequence (P50750 whole entry): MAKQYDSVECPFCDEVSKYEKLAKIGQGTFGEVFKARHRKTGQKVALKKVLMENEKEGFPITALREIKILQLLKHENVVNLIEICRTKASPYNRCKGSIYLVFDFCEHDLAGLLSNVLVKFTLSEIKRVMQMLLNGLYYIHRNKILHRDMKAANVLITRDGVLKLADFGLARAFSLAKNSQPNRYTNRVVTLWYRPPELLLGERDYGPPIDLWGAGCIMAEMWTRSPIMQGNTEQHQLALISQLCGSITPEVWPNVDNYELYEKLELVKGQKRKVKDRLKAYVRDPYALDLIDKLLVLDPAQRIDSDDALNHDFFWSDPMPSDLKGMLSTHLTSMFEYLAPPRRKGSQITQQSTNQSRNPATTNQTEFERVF

HCT-116 [4] = test: Antiproliferative activity against human HCT-116 cells assessed as inhibition of cell growth incubated for 72 hrs by MTT assay; format: functional
COLO 205 = test: Antiproliferative activity against human COLO 205 cells assessed as inhibition of cell growth incubated for 72 hrs by MTT assay; format: functional
HCT-116 [5] = test: Induction of apoptosis in human HCT-116 cells assessed as viable cells at 1 uM incubated for 72 hrs by AnnexinV-FITC/propidium iodide staining based flow cytometry (reference value: 93.43%); format: functional; details: read-out: Activity
HCT-116 [6] = test: Induction of apoptosis in human HCT-116 cells assessed as late apoptotic cells at 0.5 uM incubated for 72 hrs by AnnexinV-FITC/propidium iodide staining based flow cytometry (reference value: 2.91%); format: functional
U-937 = test: Antiproliferative activity against human U-937 cells assessed as inhibition of cell growth incubated for 72 hrs by MTT assay; format: functional
HCT-116 [7] = test: Induction of cell cycle arrest in human HCT-116 cells assessed as accumulation of cells at sub G1 phase at 0.5 uM incubated for 24 hrs by propidium iodide staining based flow cytometry (reference value: 0.24%); format: functional
OAW-28 = test: Antiproliferative activity against human OAW-28 cells assessed as inhibition of cell growth incubated for 72 hrs by MTT assay; format: functional
HCT-116 [8] = test: Downregulation of CDC25B expression in human HCT-116 cells at 0.5 to 1 uM incubated for 24 hrs by Western blot analysis; format: functional, cell-based; details: dose 0.5-1 µM
HCT-116 [9] = test: Induction of apoptosis in human HCT-116 cells assessed as necrotic cells at 1 uM incubated for 72 hrs by AnnexinV-FITC/propidium iodide staining based flow cytometry (Rvb =0.71%); format: functional
MDA-MB-231 = test: Antiproliferative activity against human MDA-MB-231 cells assessed as inhibition of cell growth incubated for 72 hrs by MTT assay; format: functional
HCT-116 [10] = test: Induction of cell cycle arrest in human HCT-116 cells assessed as accumulation of cells at sub G1 phase at 1 uM incubated for 24 hrs by propidium iodide staining based flow cytometry (reference value: 0.24%); format: functional
HCT-116 [11] = test: Induction of cell cycle arrest in human HCT-116 cells assessed as accumulation of cells at G1 phase at 0.5 uM incubated for 24 hrs by propidium iodide staining based flow cytometry (reference value: 51.33%); format: functional
HCT-116 [12] = test: Induction of apoptosis in human HCT-116 cells assessed as early apoptotic cells at 1 uM incubated for 72 hrs by AnnexinV-FITC/propidium iodide staining based flow cytometry (reference value: 2.95%); format: functional
A2780 = test: Antiproliferative activity against human A2780 cells assessed as inhibition of cell growth incubated for 72 hrs by MTT assay; format: functional
HT-29 = test: Antiproliferative activity against human HT-29 cells assessed as inhibition of cell growth incubated for 72 hrs by MTT assay; format: functional
OVCAR-5 = test: Antiproliferative activity against human OVCAR-5 cells assessed as inhibition of cell growth incubated for 72 hrs by MTT assay; format: functional
HCT-116 [13] = test: Induction of cell cycle arrest in human HCT-116 cells assessed as accumulation of cells at S phase at 0.5 uM incubated for 24 hrs by propidium iodide staining based flow cytometry (reference value: 18.01%); format: functional
[14] = Antiproliferative activity against human COV504 cells assessed as inhibition of cell growth incubated for 72 hrs by MTT assay; format: functional
U-251 = test: Antiproliferative activity against human U-251 cells assessed as inhibition of cell growth incubated for 72 hrs by MTT assay; format: functional
HCT-116 [15] = test: Induction of cell cycle arrest in human HCT-116 cells assessed as accumulation of cells at S phase at 1 uM incubated for 24 hrs by propidium iodide staining based flow cytometry (reference value: 18.01%); format: functional
HCT-116 [16] = test: Induction of cell cycle arrest in human HCT-116 cells assessed as accumulation of cells at G2/M phase at 1 uM incubated for 24 hrs by propidium iodide staining based flow cytometry (reference value: 28.37%); format: functional
NCI-H82 = test: Antiproliferative activity against human NCI-H82 cells assessed as inhibition of cell growth incubated for 72 hrs by MTT assay; format: functional
HCT-116 [17] = test: Induction of cell cycle arrest in human HCT-116 cells assessed as accumulation of cells at G1 phase at 1 uM incubated for 24 hrs by propidium iodide staining based flow cytometry (reference value: 51.33%); format: functional
HCT-116 [18] = test: Induction of apoptosis in human HCT-116 cells assessed as increase in cleaved PARP level at 0.5 to 1 uM incubated for 24 hrs by Western blot analysis; format: functional, cell-based; details: dose 0.5-1 µM
MV4-11 = test: Antiproliferative activity against human MV4-11 cells assessed as inhibition of cell growth incubated for 72 hrs by MTT assay; format: functional
HCT-116 [19] = test: Induction of cell cycle arrest in human HCT-116 cells assessed as accumulation of cells at G2/M phase at 0.5 uM incubated for 24 hrs by propidium iodide staining based flow cytometry (reference value: 28.37%); format: functional
[20] = biological target: Cyclin-dependent kinase 2 (Homo sapiens) (UniProt P24941); test: Inhibition of CDK2 in human HCT-116 cells assessed as reduction in phosphorylation at Thr821 residue incubated for 24 hrs by Western blot analysis; format: cell-based; details: dose 0.5-1 µM
KM12 = test: Antiproliferative activity against human KM12 cells assessed as inhibition of cell growth incubated for 72 hrs by MTT assay; format: functional
HCT-116 [21] = test: Induction of apoptosis in human HCT-116 cells assessed as necrotic cells at 0.5 uM incubated for 72 hrs by AnnexinV-FITC/propidium iodide staining based flow cytometry (Rvb =0.71%); format: functional
HCT-116 [22] = test: Induction of DNA damage in human HCT-116 cells assessed as increase in H2AX phosphorylation at Ser139 residue at 0.5 to 1 uM incubated for 24 hrs by Western blot analysis; format: functional, cell-based; details: dose 0.5-1 µM
HCT-116 [23] = test: Induction of apoptosis in human HCT-116 cells assessed as viable cells at 0.5 uM incubated for 72 hrs by AnnexinV-FITC/propidium iodide staining based flow cytometry (reference value: 93.43%); format: functional; details: read-out: Activity
[24] = biological target: Cyclin-dependent kinase 5/CDK5 activator 1 (Homo sapiens, UniProt Q00535); test: Inhibition of CDK5/p25 (unknown origin) assessed as inhibition constant incubated for 30 to 60 mins presence of dithiothreitol by Cheng-Prusoff equation analysis; format: protein-complex assay
Cyclin-dependent kinase 5/CDK5 activator 1, sequence (Q00535 whole entry): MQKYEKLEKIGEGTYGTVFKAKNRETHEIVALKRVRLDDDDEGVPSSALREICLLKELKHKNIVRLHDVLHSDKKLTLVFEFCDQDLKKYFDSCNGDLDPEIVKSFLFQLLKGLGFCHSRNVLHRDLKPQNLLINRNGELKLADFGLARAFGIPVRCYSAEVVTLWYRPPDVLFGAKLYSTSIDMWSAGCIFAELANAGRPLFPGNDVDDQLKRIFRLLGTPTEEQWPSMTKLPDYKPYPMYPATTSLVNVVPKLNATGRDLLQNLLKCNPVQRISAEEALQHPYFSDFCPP
Cyclin-dependent kinase 5/CDK5 activator 1, sequence (Q15078 whole entry, further chain): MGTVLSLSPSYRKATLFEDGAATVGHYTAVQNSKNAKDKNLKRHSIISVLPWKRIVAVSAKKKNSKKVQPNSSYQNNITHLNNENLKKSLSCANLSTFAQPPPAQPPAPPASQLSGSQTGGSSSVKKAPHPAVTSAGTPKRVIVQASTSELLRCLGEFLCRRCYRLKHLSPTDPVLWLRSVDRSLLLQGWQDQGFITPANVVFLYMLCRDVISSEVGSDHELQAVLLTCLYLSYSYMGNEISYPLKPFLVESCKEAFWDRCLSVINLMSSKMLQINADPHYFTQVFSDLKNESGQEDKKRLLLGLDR

[25] = Antiproliferative activity against human COV318 cells assessed as inhibition of cell growth incubated for 72 hrs by MTT assay; format: functional
HCT-116 [26] = test: Induction of apoptosis in human HCT-116 cells assessed as early apoptotic cells at 0.5 uM incubated for 72 hrs by AnnexinV-FITC/propidium iodide staining based flow cytometry (reference value: 2.95%); format: functional
HCT-116 [27] = test: Induction of apoptosis in human HCT-116 cells assessed as late apoptotic cells at 1 uM incubated for 72 hrs by AnnexinV-FITC/propidium iodide staining based flow cytometry (reference value: 2.91%); format: functional

- Ki [1]: 5 nM
- inhibition [2]: Dose-Dependent Effect
- GI50 (NCI-H460): 527 nM
- Ki [3]: 1 nM
- Ki (CDK9/cyclin T1): 17 nM
- GI50 (HCT-116 [4]): 186 nM
- GI50 (COLO 205): 194 nM
- GI50 (U-937): 145 nM
- GI50 (MDA-MB-231): 472 nM
- GI50 (A2780): 74 nM
- GI50 (HT-29): 291 nM
- GI50 (OVCAR-5): 108 nM
- GI50 (U-251): 695 nM
- GI50 (NCI-H82): 183 nM
- GI50 (MV4-11): 88 nM
- inhibition [20]: Dose-Dependent Effect
- Ki [24]: 33 nM
SMILES: Cn1cc(-c2nc(Nc3ccc(S(N)(=O)=O)cc3)ncc2Cl)cn1
- GI50 (ES-2): 285 nM
- GI50 (OV-90): 444 nM
- viability at 1 µM (HCT-116 [5]): 78.4%
- Activity (HCT-116 [6]): 9.6%
- Activity (HCT-116 [7]): 0.51%
- GI50 (OAW-28): 780 nM
- Activity (HCT-116 [8]): Active
- Activity (HCT-116 [9]): 1.83%
- Activity (HCT-116 [10]): 2.11%
- Activity (HCT-116 [11]): 4.24%
- Activity (HCT-116 [12]): 4.78%
- Activity (HCT-116 [13]): 7.94%
- GI50 [14]: 768 nM
- Activity (HCT-116 [15]): 18.5%
- Activity (HCT-116 [16]): 52.06%
- Activity (HCT-116 [17]): 27.94%
- Activity (HCT-116 [18]): Active
- Activity (HCT-116 [19]): 86.28%
- GI50 (KM12): 558 nM
- Activity (HCT-116 [21]): 1.19%
- Activity (HCT-116 [22]): inactive
- viability at 0.5 µM (HCT-116 [23]): 77%
- GI50 [25]: 545 nM
- Activity (HCT-116 [26]): 12.2%
- Activity (HCT-116 [27]): 5.01%
